Compound: Cn1cncc1[C@@](N)(c1ccc(Cl)cc1)c1ccc2c(c1)c(-c1cccc(Cl)c1)cc(=O)n2C [Tipifarnib] + Cc1cc(Nc2cc(N3CCN(C)CC3)nc(Sc3ccc(NC(=O)C4CC4)cc3)n2)n[nH]1 [Tozasertib] (partner 0.1 µM)
Assay: relative viability (nuclei count vs DMSO), 5 days (fraction); higher = more cells survive
Method in brief: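 Lung cancer cell lines were seeded in 1536-well plates and dosed by pin tool the next day, with either a single drug or a fixed anchor-drug dose combined with five library-drug doses (not always all listed) spaced in √10 steps. Five days later, one step fixed the cells and stained their nuclei (final 0.05% Triton X-100, 1% formaldehyde, 1 ug/ml Hoechst), and nuclei were counted on 4× images. Relative viability is the nuclei count in treated wells divided by the count in vehicle wells, and each value is the median of duplicate plates.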

| Cell Line | relative viability (first compound 0.01 µM) | relative viability (first compound 0.03162 µM) | relative viability (first compound 0.1 µM) | relative viability (first compound 0.3162 µM) | relative viability (first compound 1 µM) |
| --- | --- | --- | --- | --- | --- |
| 201T | 1.02 | 0.945 | 0.864 | 0.705 | 0.767 |
| A-427 | 0.164 | 0.205 | 0.227 | 0.171 | 0.211 |
| ABC-1 | 0.21 | – | 0.191 | 0.154 | 0.238 |
| BEN | 0.576 | 0.398 | 0.491 | 0.418 | 0.504 |
| CAL-12T | 0.277 | 0.278 | 0.241 | 0.188 | 0.246 |
| COR-L23 | 0.213 | 0.175 | 0.232 | 0.146 | 0.15 |
| COR-L 105 | 0.333 | 0.356 | 0.281 | 0.305 | 0.294 |
| ChaGo-K-1 | 0.226 | 0.22 | 0.213 | 0.198 | 0.175 |
| EKVX | 0.447 | 0.331 | 0.397 | 0.348 | 0.297 |
| EMC-BAC-2 | 0.3 | 0.281 | 0.272 | 0.262 | 0.271 |
| EPLC-272H | 0.366 | 0.266 | 0.224 | 0.249 | 0.243 |
| H3255 | 0.72 | 0.674 | 0.528 | 0.476 | 0.389 |
| HARA | 0.123 | 0.0922 | 0.102 | 0.0898 | 0.0758 |
| HCC-15 | 0.242 | 0.227 | 0.227 | 0.153 | 0.174 |
| HCC-44 | 0.935 | 0.665 | 0.572 | 0.623 | 0.578 |
| HCC-78 | 0.403 | 0.371 | 0.388 | 0.32 | 0.297 |
| HCC-366 | 0.091 | 0.0658 | 0.0515 | 0.0779 | 0.0476 |
| HCC-827 | 0.41 | 0.409 | 0.335 | 0.26 | 0.334 |
| HOP-62 | 0.297 | 0.292 | 0.312 | 0.2 | 0.244 |
| LC-2-ad | 0.509 | 0.37 | 0.415 | 0.407 | 0.393 |
| LCLC-97TM1 | 0.154 | 0.18 | 0.186 | 0.148 | 0.215 |
| LCLC-103H | 0.413 | 0.375 | 0.364 | 0.309 | 0.31 |
| LK-2 | 0.158 | 0.173 | 0.189 | 0.157 | 0.162 |
| LOU-NH91 | 0.61 | 0.524 | 0.329 | 0.464 | 0.441 |

| Cell Line | relative viability (first compound 0.01 µM) | relative viability (first compound 0.03162 µM) | relative viability (first compound 0.1 µM) | relative viability (first compound 0.3162 µM) | relative viability (first compound 1 µM) |
| --- | --- | --- | --- | --- | --- |
| LU99A | 0.261 | 0.249 | 0.223 | 0.232 | 0.223 |
| LXF-289 | 0.224 | 0.192 | 0.21 | 0.142 | 0.152 |
| NCI-H23 | 0.346 | 0.371 | 0.384 | 0.253 | 0.259 |
| NCI-H322M | 0.55 | 0.492 | 0.511 | 0.417 | 0.46 |
| NCI-H358 | 0.117 | 0.123 | 0.104 | 0.104 | 0.11 |
| NCI-H441 | 0.671 | 0.554 | 0.528 | 0.356 | 0.439 |
| NCI-H460 | 0.625 | 0.51 | 0.216 | 0.15 | 0.0888 |
| NCI-H520 | 0.404 | 0.4 | 0.348 | 0.335 | 0.336 |
| NCI-H522 | 0.517 | 0.564 | 0.525 | 0.542 | 0.566 |
| NCI-H596 | 1.05 | 0.687 | 0.713 | 0.722 | 0.589 |
| NCI-H647 | 0.21 | 0.126 | 0.178 | 0.101 | 0.14 |
| NCI-H650 | 0.791 | 0.612 | 0.498 | 0.576 | 0.379 |
| NCI-H661 | 0.355 | 0.347 | 0.337 | 0.34 | 0.347 |
| NCI-H727 | 0.809 | 0.598 | 0.624 | 0.608 | 0.444 |
| NCI-H838 | 0.254 | 0.286 | 0.248 | 0.214 | 0.252 |
| NCI-H1355 | 0.474 | 0.408 | 0.321 | 0.349 | 0.329 |
| NCI-H1395 | 0.659 | 0.681 | 0.567 | 0.498 | 0.556 |
| NCI-H1437 | 0.398 | 0.358 | 0.381 | 0.319 | 0.353 |
| NCI-H1648 | 0.368 | 0.479 | 0.285 | 0.483 | 0.352 |
| NCI-H1650 | 0.267 | 0.283 | 0.241 | 0.205 | 0.326 |
| NCI-H1651 | 0.927 | 0.649 | 0.615 | 0.575 | 0.711 |
| NCI-H1666 | 0.593 | 0.507 | 0.526 | 0.447 | 0.517 |
| NCI-H1734 | 0.294 | 0.26 | 0.247 | 0.215 | 0.239 |
| NCI-H1755 | 0.741 | 0.584 | 0.639 | 0.518 | 0.569 |

| Cell Line | relative viability (first compound 0.01 µM) | relative viability (first compound 0.03162 µM) | relative viability (first compound 0.1 µM) | relative viability (first compound 0.3162 µM) | relative viability (first compound 1 µM) |
| --- | --- | --- | --- | --- | --- |
| NCI-H1793 | 0.286 | 0.284 | 0.248 | 0.247 | 0.265 |
| NCI-H1915 | 0.358 | 0.326 | 0.293 | 0.26 | 0.287 |
| NCI-H1944 | 0.257 | 0.256 | 0.236 | 0.25 | 0.236 |
| NCI-H1975 | 0.853 | 0.695 | 0.682 | 0.386 | 0.374 |
| NCI-H1993 | 0.444 | 0.481 | 0.553 | 0.521 | 0.481 |
| NCI-H2009 | 0.605 | 0.574 | 0.421 | 0.341 | 0.419 |
| NCI-H2023 | 0.251 | 0.289 | 0.217 | 0.182 | 0.215 |
| NCI-H2085 | 0.723 | 0.663 | 0.468 | 0.437 | 0.617 |
| NCI-H2087 | 0.245 | 0.164 | 0.164 | 0.132 | 0.132 |
| NCI-H2126 | 0.858 | 0.697 | 0.673 | 0.603 | 0.501 |
| NCI-H2170 | 0.839 | 0.718 | 0.456 | 0.501 | 0.47 |
| NCI-H2228 | 0.24 | 0.164 | 0.223 | 0.174 | 0.235 |
| NCI-H2342 | 0.472 | 0.476 | 0.43 | 0.371 | 0.383 |
| NCI-H2347 | 0.516 | 0.402 | 0.431 | 0.382 | 0.461 |
| NCI-H2405 | 0.708 | 0.666 | 0.626 | 0.544 | 0.532 |
| NCI-H3122 | 0.372 | 0.27 | 0.277 | 0.196 | 0.183 |
| PC-3 [JPC-3] | 0.827 | 0.827 | 0.722 | 0.701 | 0.535 |
| PC-14 | 0.397 | 0.496 | 0.172 | 0.165 | 0.155 |
| RERF-LC-KJ | 0.623 | 0.435 | 0.454 | 0.325 | 0.334 |
| SK-LU-1 | 0.305 | 0.302 | 0.311 | 0.248 | 0.265 |
| SK-MES-1 | 0.834 | 0.76 | 0.63 | 0.566 | 0.572 |
| SW 1573 | 0.177 | 0.179 | 0.145 | 0.142 | 0.176 |
| UMC-11 | 0.19 | 0.193 | 0.194 | 0.181 | 0.177 |

Reference: the supplement of paper PMC10307832
